Values joined by “and” are separate entries in the source; they are usually repeats but may differ in a detail not shown here. Equal entries are not always repeated. “Also recorded” adds a separate entry of the source. Marks after values point to notes of the source that are not given here.
Assays:
Nx mice [1] = assay: Subtotal nephrectomy (Nx) mouse model of CKD, curative study, renal histopathology (Example 1); format: in vivo
Excerpt: (§1) Analysis has been focused on an experimental model of CKD, i.e. the subtotal nephrectomy (Nx). In this model, a “curative study” was investigated, i.e. treatments have been initiated 5 weeks after Nx, when lesions are already developed. 42 nine-week old FVB female mice have been investigated, of which 6 have been submitted to sham operation (controls) and 36 to subtotal nephrectomy (Nx), which consist in the excision of the right kidney and the two poles of the left kidney to reach 75% reduction of total renal mass. Surgery was performed under xylazine (Rompun 2%; Bayer, Leverkusen, France) (6 μg/g of body weight) and ketamine (Clorketam 1000; Vetoquinol SA, Lirre, France) (120 μg/g of body weight) anesthesia.
(§2) After 5 weeks, mice have been divided into 4 groups: • Sham mice treated with the vehicle (n=6) • Nx mice treated with the vehicle (n=10) • Nx mice treated with dEF2572 FXR agonist (4-bromo-5-[4-(2,6-dichloro-benzenesulfonyl)-piperazin-1-yl]-benzofuran-2-carboxylic acid) at 100 mg/Kg/day (n=11) • Nx mice treated with Nidufexor (LMB763) FXR agonist at 30 mg/Kg/day (n=10)
Compounds have been administered once a day (QD) per oral gavage.
Mice have been sacrificed 3 weeks later. Blood has been collected just before sacrifice. At sacrifice, kidneys have been harvested for morphological and mRNA analyses.
Kidneys were fixed in 4% paraformaldehyde, paraffin embedded, and 4-μm sections were stained with Periodic acid-Schiff (PAS), Masson's trichrome, Hematoxylin and eosin, and picrosirius red (PSR). Images were acquired using a Nikon Digital Camera Dx/m/1200. All sections were evaluated by a pathologist who was blinded to the treatment groups.
The degree of glomerular lesions was evaluated on Periodic acid-Schiff (PAS) staining using a semi-quantitative score methodology. Briefly, 40-60 glomeruli per mouse were scored at a magnification of ×400, using the following scoring system: 0=no lesion, 1=mild sclerosis, interesting 10-25% of the glomerulus, 2=moderate sclerosis, interesting 25%-50% of the glomerulus, 3=severe sclerosis interesting 50%-75% of the glomerulus, and 4=global sclerosis interesting >75% of the glomerulus. The results were expressed as the mean of the scores of 40-60 glomeruli per mouse.
The degree of tubular dilations was automatically quantified on PAS staining using Image J/Fiji software, version 2.1.0. The extent of interstitial fibrosis was also quantified using Image J/Fiji software. Staining of all kidney samples with picrosirius red (PSR) was performed simultaneously, and red intensity above a defined threshold was defined as fibrosis. For tubular dilations and interstitial fibrosis, at least 10 to 15 random selected fields (magnification ×200) across the corticomedullary junction were analyzed per each kidney section, and the results were expressed as percentages of the total area of the selected fields.

[2] = test system: FXR target genes (OSTA and OSTB); assay: Renal OSTA and OSTB mRNA levels by quantitative RT-PCR in Nx mice (Example 1); format: in vivo, mouse; conditions: Nx mice kidneys
Method: Mice were subjected to a subtotal nephrectomy (Nx). Treatments were initiated 5 weeks after Nx for a duration of 3 weeks. Kidneys were collected at sacrifice, and OSTA and OSTB mRNA levels were assessed by quantitative RT-PCR. p-values are indicated on the graphs.
as §1
as §2, with “mg/Kg/day (n=10) […]” for “mg/Kg/day (n=10)”

Nx mice [3] = assay: Subtotal nephrectomy (Nx) mouse model of CKD, curative study, interstitial fibrosis by PSR (Example 2); format: in vivo; conditions: initiated 5 weeks after Nx
Excerpt: Analysis has been focused on an experimental model of CKD, i.e. the subtotal nephrectomy (Nx). In this model, a “curative study” was investigated, i.e. treatments have been initiated 5 weeks after Nx, when lesions are already developed.
54 nine-week old FVB female mice have been investigated, of which 6 have been submitted to sham operation (controls) and 48 to subtotal nephrectomy (Nx), which consist in the excision of the right kidney and the two poles of the left kidney to reach 75% reduction of total renal mass. Surgery was performed under xylazine (Rompun 2%; Bayer, Leverkusen, France) (6 μg/g of body weight) and ketamine (Clorketam 1000; Vetoquinol SA, Lirre, France) (120 μg/g of body weight) anesthesia. […]
Kidneys were fixed in 4% paraformaldehyde, paraffin embedded, and 4-μm sections were stained with picrosirius red (PSR). […] All sections were evaluated by a pathologist who was blinded to the treatment groups.
Staining of all kidney samples with picrosirius red (PSR) was performed, and red intensity above a defined threshold was defined as fibrosis. For interstitial fibrosis, at least 10 to 15 random selected fields (magnification ×200) across the corticomedullary junction were analyzed per each kidney section, and the results were expressed as percentages of the total area of the selected fields.

NASH patients = assay: Randomized, double-blind, placebo-controlled Livify NASH trial (Phase 2a); format: in vivo, human; conditions: for ALT, absolute change (IU/L) / Alpha-2-Macroglobulin, absolute change (mg/dL) / Body Weight, absolute change (kg) / Change Relative LFC, % / GGT, absolute change (IU/L) / Waist-to-Hip Ratio, absolute change / cT1, absolute change (msec) / eGFR, absolute change (mL/min/1.73 m^2) / Change Absolute LFC, %: change from baseline to W12, mean (SD); for Change Absolute LFC, %: MRI-PDFF
Method: Vonafexor has anti-fibrotic effects in NASH and Chronic Kidney Disease (CKD) models. Up to 64% of NASH patients have decreased estimated glomerular filtration rate (eGFR <90 mL/min/1.73 m^2) which can evolve into CKD. […] 96 patients were randomized 1:1:1 to daily oral Placebo (PBO, n=32) or VONA (Vonafexor) 100 mg (n=31) or 200 mg (n=33) for 12 weeks (W12). Inclusion criteria required phenotypic stage 2 or 3 fibrosis NASH with an absolute liver fat content (LFC by MRI-PDFF) ≥10% and liver stiffness by transient elastography [LSTE]≥8.5 kPa or previous biopsy-proven NASH. Randomization was stratified by diabetes and LFC.

[4] = 30 mg/Kg/day QD oral gavage for 3 weeks, 30 mg/kg/day
[5] = 100 mg/Kg/day QD oral gavage for 3 weeks, 100 mg/kg/day
[6] = 100 mg/Kg/day QD oral gavage for 3 weeks, initiated 5 weeks after Nx

## Cn1nc(C(=O)N(Cc2ccccc2)Cc2ccc(C(=O)O)cc2)c2c1-c1cc(Cl)ccc1OC2 [Nidufexor]
Nx mice [1]; 30 mg/Kg/day QD oral gavage for 3 weeks (FIG. 1)
  interstitial fibrosis: no significant effect
Nx mice [1]; 30 mg/Kg/day QD oral gavage for 3 weeks, initiated 5 weeks after Nx
  beneficial effects on the kidneys (interstitial fibrosis, tubular dilatation, glomerular lesions): not observed
[2]; [4]
  renal expression of FXR target genes OSTA and OSTB (mRNA): strong renal FXR target engagement; also recorded: more powerful FXR agonist than the identified compounds; also recorded: significantly increase

## CC[C@H]1[C@@H](O)[C@@H]2[C@H](CC[C@]3(C)[C@@H]([C@H](C)CCC(=O)O)CC[C@@H]23)[C@@]2(C)CC[C@@H](O)C[C@@H]12 [Obeticholic acid, reference compound]
Nx mice [3]; [4]
  renal interstitial fibrosis (picrosirius red staining positive areas): no significant effect

## O=C(O)c1cc2c(Cl)c(N3CCN(S(=O)(=O)c4c(Cl)cccc4Cl)CC3)ccc2o1 [Vonafexor, 4-chloro-5-[4-(2,6-dichloro-benzenesulfonyl)-piperazin-1-yl]-benzofuran-2-carboxylic acid]
NASH patients; 100 mg
  patients discontinued participation due to pruritus: 9%
NASH patients; 100 mg arm, p<0.001 vs PBO
  liver fibro-inflammation marker cT1 (Liver Multiscan) reduced by: 81 ms
NASH patients; 100 mg daily oral, W12
  % Patients >88 msec absolute reduction (cT1): 36% *
  % Patients with >30% absolute reduction (LFC): 50% §
  % Patients with >−17 IU/L reduction (ALT): 52% §
  % Patients with any eGFR increase: 76% §
NASH patients; 100 mg daily oral
  ALT, absolute change (IU/L): −19.3 (3.2) § IU/L
  Alpha-2-Macroglobulin, absolute change (mg/dL): −25.9 (4.3) #, § mg/dL
  Body Weight, absolute change (kg): −1.7 (0.5) #,§ kg
  Change Relative LFC, %: −30.0 (4.7) #, § %
  GGT, absolute change (IU/L): −40.6 (3.3) #, § IU/L
  Waist-to-Hip Ratio, absolute change: −0.02 (0.0) #, §
  cT1, absolute change (msec): −80.6 (15.4) #, § msec
  eGFR, absolute change (mL/min/1.73 m^2): +6.0 (9.5) #, § mL/min/1.73 m^2
  Change Absolute LFC, %: −6.3% and −6.3 (0.9) #, § %
NASH patients; 100 mg group
  non-drug related severe adverse events (number): 2
NASH patients; 100 mg or 200 mg treated subjects, 12 weeks
  mean improvement in eGFR: +5.6 mL/min/1.73 m^2
NASH patients; 100 mg treated subjects, 12-week treatment period
  patients with an eGFR increase >0.1 mL/min/1.73 m: 76%
NASH patients; 200 mg daily oral, W12
  % Patients >88 msec absolute reduction (cT1): 36% *
  % Patients with >5% absolute LFC reduction: 43% §
  % Patients with >30% absolute reduction (LFC): 39% §
  % Patients with >−17 IU/L reduction (ALT): 36%
  % Patients with any eGFR increase: 65% §
NASH patients; 200 mg daily oral
  ALT, absolute change (IU/L): −10.8 (3.3) IU/L
  Alpha-2-Macroglobulin, absolute change (mg/dL): −18.4 (4.5) #, § mg/dL
  Body Weight, absolute change (kg): −2.5 (0.5) #, § kg
  Change Relative LFC, %: −25.5 (4.6) #, § %
  GGT, absolute change (IU/L): −34.1 (3.3) #, § IU/L
  Waist-to-Hip Ratio, absolute change: −0.01 (0.0)
  cT1, absolute change (msec): −71.9 (14.2) #, § msec
  eGFR, absolute change (mL/min/1.73 m^2): +2.5 (14.5) #, § mL/min/1.73 m^2
  Change Absolute LFC, %: −5.5% and −5.5 (0.9) #, § %
NASH patients; 200 mg group
  non-drug related severe adverse events (number): 2
NASH patients; NASH patients, 100 mg or 200 mg daily for 12 weeks
  overall safety and tolerability: safe and well tolerated
NASH patients; NASH patients, 12 weeks
  ALT increases Grade 2: No ALT increases Grade 2
  increase in low density lipoprotein-cholesterol (LDL-C): 34%
NASH patients; NASH patients, reduction correlated with eGFR improvement (p<0.05)
  alpha-2-Macroglobulin (A2M) plasma levels: reduced
NASH patients; VONA treatment (dose not stated), 12 weeks
  mean reduction in ALT: 26%
NASH patients; VONA-treated (dose not stated), W12
  patients achieving relative LFC reduction of >30%: 50%
NASH patients; VONA-treated subjects (dose not stated), p<0.001
  mean reduction in GGT: 42%
Nx mice [3]; [5]
  renal interstitial fibrosis (picrosirius red staining positive areas): significantly decreases; also recorded: significantly better than OCA; also recorded: higher beneficial effects than Losartan

## O=C(O)c1cc2c(Br)c(N3CCN(S(=O)(=O)c4c(Cl)cccc4Cl)CC3)ccc2o1 [dEF2572, 4-bromo-5-[4-(2,6-dichloro-benzenesulfonyl)-piperazin-1-yl]-benzofuran-2-carboxylic acid]
Nx mice [1]; [6]
  renal glomerular lesions (semi-quantitative score): significantly decreases
  renal interstitial fibrosis (picrosirius red staining positive areas): significantly decreases
  renal tubular dilatation (PAS staining): significantly decreases
[2]; [5]
  renal expression of FXR target genes OSTA and OSTB (mRNA): strong renal FXR target engagement; also recorded: significantly increase
